Like-named read-outs stand apart in the source and are kept apart here.
Biological target: T1, GRK6, recombinant full-length GST-tagged human protein (Homo sapiens, UniProt P43250)
T1 construct: GRK6, recombinant full-length GST-tagged human protein; GST
Experiment: GRK6 IC50 determination (8-point concentration-response)
Format: biochemical
Text: Two hundred forty compounds were further characterized by determining IC50 values in a GRK6 assay. This screen has been previously described in WO 2013/063458, which is incorporated by reference in its entirety herein.

[1] = 20 nM GRK6, 12 μM ATP (Km), 1 μM Peptide 216, 7 h incubation

T1 sequence (P43250 whole entry): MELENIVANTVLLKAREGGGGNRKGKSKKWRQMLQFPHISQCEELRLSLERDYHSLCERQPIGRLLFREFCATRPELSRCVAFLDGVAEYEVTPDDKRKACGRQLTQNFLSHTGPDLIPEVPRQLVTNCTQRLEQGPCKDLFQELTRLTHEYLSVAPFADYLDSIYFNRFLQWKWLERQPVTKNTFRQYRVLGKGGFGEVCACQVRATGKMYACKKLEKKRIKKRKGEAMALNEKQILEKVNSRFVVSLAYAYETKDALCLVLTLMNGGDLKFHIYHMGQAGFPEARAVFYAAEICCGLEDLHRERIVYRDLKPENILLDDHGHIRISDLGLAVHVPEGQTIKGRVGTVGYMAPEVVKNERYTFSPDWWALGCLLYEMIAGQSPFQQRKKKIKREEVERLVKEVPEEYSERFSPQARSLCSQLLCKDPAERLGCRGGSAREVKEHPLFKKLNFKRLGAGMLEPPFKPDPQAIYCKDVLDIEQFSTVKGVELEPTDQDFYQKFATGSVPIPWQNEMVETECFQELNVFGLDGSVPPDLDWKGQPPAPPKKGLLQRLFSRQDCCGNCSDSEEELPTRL

Structure (SMILES)	IC50 [µM]	IC50 [1] [µM]
CNC(=O)c1cccc(NC(=O)c2cccc(-c3nnc(SCC(=O)O)[nH]3)c2)c1 [Compound 167]	20.4	–
COc1cc(-c2nnc(SCC(=O)O)[nH]2)cc2c1OCO2 [Compound 108]	3.47	–
O=C(O)CSc1nnc(-c2cc(-c3ccc4ccccc4c3)cc([N+](=O)[O-])c2)[nH]1 [Compound 6]	0.0784	–
O=C(O)CSc1nnc(-c2cc(OCc3ccccc3)cc([N+](=O)[O-])c2)[nH]1 [Compound 77]	0.695	–
CNS(=O)(=O)c1cccc(-c2nnc(SCC(=O)O)[nH]2)c1 [Compound 165]	–	18.9
O=C(O)CSc1nnc(-c2ccc(OC3CCNCC3)cc2)[nH]1 [Compound 182]	–	40
O=C(O)CSc1nnc(-c2ccc3occc3c2)[nH]1 [Compound 102]	3.08	–
O=C(O)CSc1nnc(-c2cc(-c3ccc(-c4ccn[nH]4)cc3)cc([N+](=O)[O-])c2)[nH]1 [Compound 2]	0.0588	–
CCCn1ccc2cc(-c3cc(-c4nnc(SCC(=O)O)[nH]4)cc([N+](=O)[O-])c3)ccc21 [Compound 25]	0.227	–
O=C(O)CSc1nnc(-c2cc(-c3ccc4ccccc4c3)cc(-c3cnccc3F)c2)[nH]1 [Compound 58]	0.751	–
CNS(=O)(=O)c1cccc(-c2cc(-c3nnc(SCC(=O)O)[nH]3)cc([N+](=O)[O-])c2)c1 [Compound 49]	0.507	–
O=C(O)CSc1nnc(-c2cc(NC(=O)c3ccoc3)cc(-c3ccc4ccccc4c3)c2)[nH]1 [Compound 67]	1.31	–
O=C(O)CSc1nnc(-c2cccc(F)c2)[nH]1 [Compound 115]	–	4.7
Cn1cc(Cl)c2cc(-c3cc(-c4n[nH]c(SCC(=O)O)n4)cc([N+](=O)[O-])c3)ccc21 [Compound 227]	0.06	–
O=C(O)CSc1nnc(-c2cccc(C(=O)Nc3ccc4ncccc4c3)c2)[nH]1 [Compound 161]	17.5	–
O=C(O)CSc1nnc(-c2cc(-c3cccc4[nH]ccc34)cc([N+](=O)[O-])c2)[nH]1 [Compound 8]	0.101	–
Cn1ccc2cc(-c3cc(-c4nnc(SCC(=O)O)[nH]4)cc(C(F)(F)F)c3)ccc21 [Compound 239]	0.729	–
O=C(O)CSc1nnc(-c2ccc(O)c(O)c2)[nH]1 [Compound 119]	–	5.02
O=C(O)CSc1nnc(-c2cccc(C(=O)Nc3ccc(Cl)cc3)c2)[nH]1 [Compound 148]	11.7	–
O=C(O)CSc1nnc(-c2cc(C(=O)NCc3cccnc3)cc([N+](=O)[O-])c2)[nH]1 [Compound 116]	4.78	–
Cc1c(-c2cc(-c3nnc(SCC(=O)O)[nH]3)cc([N+](=O)[O-])c2)cnn1C [Compound 83]	0.797	–
O=C(O)CSc1nnc(-c2cc(-c3cnn(CC(=O)O)c3)cc([N+](=O)[O-])c2)[nH]1 [Compound 95]	2.02	–
O=C(O)CSc1nnc(-c2cc(C(=O)O)ccc2F)[nH]1 [Compound 191]	–	81.7
O=C(O)CSc1nnc(-c2cc(Br)cc([N+](=O)[O-])c2)[nH]1 [Compound 90]	1.35	–
COc1ccc(-c2nnc(SCC(=O)O)[nH]2)c(O)c1 [Compound 169]	–	20.9
COc1cc(OC)cc(-c2nnc(SCC(=O)O)[nH]2)c1 [Compound 122]	–	6.1
O=C(O)CSc1nnc(-c2cccc(C(=O)Nc3cccnc3)c2)[nH]1 [Compound 177]	34	–

Structure (SMILES)	IC50 [µM]	IC50 [1] [µM]
O=C(O)CSc1nnc(-c2ccc3ccccc3c2)[nH]1 [Compound 85]	0.886	–
O=C(O)CSc1nnc(-c2cccc(Cn3cccn3)c2)[nH]1 [Compound 159]	–	16.2
O=C(O)CSc1nnc(-c2cc(-c3cnn(-c4cccc(Cl)c4)c3)cc([N+](=O)[O-])c2)[nH]1 [Compound 71]	0.131	–
O=C(O)CSc1nnc(-c2cc(-c3ccc4ccccc4c3)cc(C3C=NN=C3)c2)[nH]1 [Compound 28]	0.262	–
Cc1c(-c2cc(-c3nnc(SCC(=O)O)[nH]3)cc([N+](=O)[O-])c2)ccc2[nH]c(C#N)cc12 [Compound 236]	0.402	–
Cc1nn(C)c(C)c1-c1cc(-c2nnc(SCC(=O)O)[nH]2)cc([N+](=O)[O-])c1 [Compound 93]	1.57	–
Cc1ncc(-c2cc(-c3ccc4ccccc4c3)cc(-c3nnc(SCC(=O)O)[nH]3)c2)cn1 [Compound 44]	0.437	–
COc1cccc(NC(=O)c2cccc(-c3nnc(SCC(=O)O)[nH]3)c2)c1 [Compound 151]	12.9	–
Cc1nn(C)cc1-c1cc(-c2ccc3ccccc3c2)cc(-c2nnc(SCC(=O)O)[nH]2)c1 [Compound 57]	0.748	–
NC(=O)c1cc2cc(-c3cc(-c4n[nH]c(SCC(=O)O)n4)cc([N+](=O)[O-])c3)ccc2[nH]1 [Compound 228]	0.101	–
O=C(O)CSc1nnc(-c2cccc(N3CCCCC3)c2)[nH]1 [Compound 187]	–	51.8
O=C(O)CSc1nnc(-c2cc(C(=O)NCc3ccccn3)cc([N+](=O)[O-])c2)[nH]1 [Compound 111]	4.41	–
O=C(O)CSc1nnc(-c2cccc3cc[nH]c23)[nH]1 [Compound 153]	13.4	–
O=C(O)CSc1nnc(-c2cc(-c3ccc4[nH]cc(-c5ccccc5)c4c3)cc([N+](=O)[O-])c2)[nH]1 [Compound 4]	0.0674	–
COc1ccc(O)c(-c2nnc(SCC(=O)O)[nH]2)c1 [Compound 113]	–	4.55
N#Cc1cccc(-c2nnc(SCC(=O)O)[nH]2)c1 [Compound 96]	–	2.31
CSc1ccccc1-c1nnc(SCC(=O)O)[nH]1 [Compound 188]	–	74.1
COc1ccc2cc(-c3cccc(-c4nnc(SCC(=O)O)[nH]4)c3)ccc2c1 [Compound 51]	–	0.51
COc1cc(Cl)cc(-c2cccc(-c3nnc(SCC(=O)O)[nH]3)c2)c1 [Compound 41]	–	0.426
N#Cc1cc2cc(-c3cc(-c4nnc(SCC(=O)O)[nH]4)cc([N+](=O)[O-])c3)ccc2[nH]1 [Compound 232]	0.184	–
O=C(O)CSc1nnc(-c2cccc(-n3cncn3)c2)[nH]1 [Compound 112]	–	4.47
C[S+]([O-])c1cccc(-c2nnc(SCC(=O)O)[nH]2)c1 (centres unmarked) [Compound 162]	–	17.5
O=C(O)CSc1nnc(-c2cccc(-c3cccs3)c2)[nH]1 [Compound 81]	–	0.757
O=C(O)CSc1nnc(-c2cc(-c3ccc4[nH]cnc4c3)cc([N+](=O)[O-])c2)[nH]1 [Compound 26]	0.249	–
N#Cc1cccc(-c2cccc(-c3nnc(SCC(=O)O)[nH]3)c2)c1 [Compound 64]	–	0.919
O=C(O)CSc1nnc(-c2cccc(F)c2O)[nH]1 [Compound 138]	–	8.75
O=C(O)CSc1nnc(-c2ccc3ncccc3c2)[nH]1 [Compound 107]	3.39	–

Structure (SMILES)	IC50 [µM]	IC50 [1] [µM]
O=C(O)CSc1nnc(-c2cccc3c2OCCCO3)[nH]1 [Compound 197]	> 100	–
O=C(O)CSc1nnc(-c2cccc(C(=O)Nc3ccccc3Cl)c2)[nH]1 [Compound 186]	47.8	–
COc1cc(F)c(-c2nnc(SCC(=O)O)[nH]2)c(F)c1 [Compound 181]	–	38.5
COc1cc(F)cc(-c2nnc(SCC(=O)O)[nH]2)c1 [Compound 98]	–	2.61
Cc1c(-c2ccc3c(ccn3C)c2)cc(-c2nnc(SCC(=O)O)[nH]2)cc1[N+](=O)[O-] [Compound 9]	0.103	–
CNC(=O)c1ccc(-c2cc(-c3nnc(SCC(=O)O)[nH]3)cc([N+](=O)[O-])c2)cc1 [Compound 45]	0.44	–
CNS(=O)(=O)c1ccc(-c2cc(-c3nnc(SCC(=O)O)[nH]3)cc([N+](=O)[O-])c2)cc1 [Compound 62]	0.824	–
Cc1onc(-c2ccccc2)c1-c1cc(-c2nnc(SCC(=O)O)[nH]2)cc([N+](=O)[O-])c1 [Compound 84]	0.879	–
O=C(O)CSc1nnc(-c2cc(-c3ccncc3)cc(-c3ccc4ccccc4c3)c2)[nH]1 [Compound 69]	1.86	–
O=C(O)CSc1nnc(-c2cccc3ccccc23)[nH]1 [Compound 174]	28.1	–
O=C(O)CSc1nnc(-c2ccc(F)c(F)c2)[nH]1 [Compound 106]	–	3.36
O=C(O)CSc1nnc(-c2cc(-c3ccc4[nH]c(-c5ccccc5)cc4c3)cc([N+](=O)[O-])c2)[nH]1 [Compound 33, 2-((3-(3-nitro-5-(2-phenyl-1H-indol-5-yl)phenyl)-1H-1,2,4-triazol-5-yl)thio)acetic acid]	0.302	–
O=C(O)CSc1nnc(-c2cc(-c3cc(Cl)c4ccccc4c3)cc([N+](=O)[O-])c2)[nH]1 [Compound 233]	0.209	–
Cn1nc(C(F)(F)F)cc1-c1cc(-c2nnc(SCC(=O)O)[nH]2)cc([N+](=O)[O-])c1 [Compound 97]	2.49	–
O=C(O)CSc1nnc(-c2cc(C(=O)Nc3ccccc3)cc([N+](=O)[O-])c2)[nH]1 [Compound 82]	0.761	–
O=C(O)CSc1nnc(-c2cc(-c3ccc4ccccc4c3)cc(-c3cnco3)c2)[nH]1 [Compound 13]	0.122	–
Cc1c(-c2cc(-c3ccc4ccccc4c3)cc(-c3nnc(SCC(=O)O)[nH]3)c2)cnn1C [Compound 38]	0.376	–
CC(C)CNC(=O)c1cc(-c2nnc(SCC(=O)O)[nH]2)cc([N+](=O)[O-])c1 [Compound 100]	2.75	–
O=C(O)CSc1nnc(-c2cccc(-c3cnccn3)c2)[nH]1 [Compound 126]	–	6.5
O=C(O)CSc1nnc(-c2cc(-c3ccc4[nH]ccc4c3)cc([N+](=O)[O-])c2)[nH]1 [Compound 5]	0.0739	–
O=C(O)CSc1nnc(-c2cc(-c3cnn(Cc4ccccc4)c3)cc([N+](=O)[O-])c2)[nH]1 [Compound 72]	0.141	–
O=C(O)CSc1nnc(-c2ccc3nsnc3c2)[nH]1 [Compound 117]	4.85	–
Nc1cc(-c2ccc3ccccc3c2)cc(-c2nnc(SCC(=O)O)[nH]2)c1 [Compound 43]	0.433	–
Cc1noc(C)c1-c1cc(-c2nnc(SCC(=O)O)[nH]2)cc([N+](=O)[O-])c1 [Compound 91]	1.38	–
COc1ccc(F)c(-c2nnc(SCC(=O)O)[nH]2)c1 [Compound 163]	–	18.3
O=C(O)CSc1nnc(-c2cc(C(=O)NCc3ccccc3)cc([N+](=O)[O-])c2)[nH]1 [Compound 94]	1.57	–

— US20170050939A1, “SMALL MOLECULE INHIBITORS OF G PROTEIN COUPLED RECEPTOR 6 KINASE POLYPEPTIDES” (Mayo Foundation for Medical Education and Research, priority 2014, published 2017)
